According to US11884710B2, “Peptide compounds and methods of use in wound healing” (priority 2013, dated 2024):
Where two headings read alike, the source gives them in different places. Square brackets hold non-standard residues; d marks the D form. Ends that are not written are not given here. PEG2 = NCCOCCOCCC(=O)O

Key:
[1] = test system: Pseudomonas clinical isolate B64; assay: BIOSCREEN C growth assay, peptide plus antibiotic combinations; type: cell-based, Pseudomonas aeruginosa; conditions: for MIC: Pseudomonas
Method: FIGS. 28A and 28B show the effect of BCC002-5R-MP (SEQ ID NO:21) in combination with Cefotaxime on MIC using Pseudomonas clinical isolate B64. Cefotaxime (Cefo) and peptide combinations included a constant amount of Cefotaxime (2.81 μg/ml) with suboptimal amounts of peptide (0, 0.34, 1.01, and 3.04 μg/ml). […] FIG. 28B is a histogram showing Fractional area (FA), which is an indication of the MIC.
FIG. 29B is a histogram showing Fractional area (FA), which is an indication of the MIC.
FIGS. 30A and 30B show the effect of BCC02-5R-MP (SEQ ID NO:21) in combination with Levofloxacin (Levo) and peptide combinations included a constant amount of Levofloxacin (3.6 μg/ml) with suboptimal amounts of peptide (0, 0.34, 1.01, 3.04 μg/ml). […] FIG. 30B is a histogram showing Fractional area (FA), which is an indication of the MIC.
The peptide and antibiotics were set up in the wells of the microtiter plate at starting ratios of MIC equivalents of antibiotic:peptide at 3:1, 1:1, and 1:3. They were serially diluted to concentrations well below suboptimal/sublethal levels of the antibiotic and peptide. The organism was added (1×10^5 CFU/well), the BIOSCREEN C™ assay (Growth Systems USA, Piscataway, N.J.) was performed, and data was collected over 24 hours.

[2] = test system: Pseudomonas aeruginosa ATCC 27853; assay: In vitro bactericidal assay, P. aeruginosa ATCC 27853 (FIGS. 12-14); type: cell-based; conditions: FIG. 14; pH 5.5; 180 minutes; even at the lower concentration (75 μg/ml)
Method: Each of the test peptides was used at 25, 12.5 6.25, and 3.12 μM. The gentamicin was used at 4 μg/ml. 1×10^6/ml Pseudomonas aeruginosa ATCC® 27853™ (American Type Culture Collection, Manassas, Va.) were incubated with the peptides, negative buffer control (tryptone saline), and positive control gentamicin for 180 minutes at pH 7.2. 50 μl aliquots were plated out on agar plates and incubated overnight. Colony forming units were counted after overnight incubation and CFU/ml calculated.
Each of the test peptides was used at 25, 12.5, 6.25, and 3.12 μM. The gentamicin was used at 4 μg/ml. 1×10^6/ml Pseudomonas aeruginosa ATCC® 27853™ (American Type Culture Collection, Manassas, Va.) were incubated with the peptides, negative buffer control (tryptone saline), and positive control gentamicin for 180 minutes at pH 5.5. 50 μl aliquots were plated out on agar plates and incubated overnight. Colony forming units were counted after overnight incubation and CFU/ml calculated.
FIG. 14 is a comparison of bactericidal activity of CAP37 peptides 120-146WR (SEQ ID NO:30), 120-146WH (SEQ ID NO:31), 120-146QR (SEQ ID NO:28), 120-146QH (SEQ ID NO:29), 120-146QR-5RMP (SEQ ID NO:32), and 120-146QH-5RMP (SEQ ID NO:33) for Pseudomonas aeruginosa ATCC® 27853™ (American Type Culture Collection, Manassas, Va.). 1×10^6/ml Pseudomonas aeruginosa ATCC® 27853™ were incubated with the peptides at 150, 75, and 37.5 μg/ml and negative buffer control (tryptone saline) for 180 minutes at pH 5.5. 50 μl aliquots were plated out on agar plates and incubated overnight. Colony forming units were counted after overnight incubation and CFU/ml calculated.
For FIGS. 10-13, in vitro bactericidal assays were performed using a starting inoculum of 1×10^6 CFU/ml of the bacterial suspension. The CFU remaining at the end of the 60-180 minute incubation was determined, and the data was plotted as log reduction in CFU/ml.
In particular, each of the test peptides (CAP37 peptides 120-146WR, 120-146WH, and 95-122 (SEQ ID NOS:30, 31, and 26, respectively)) was used at 25, 12.5, 6.25, and 3.12 μM. Gentamicin was used at 4 μg/ml. 1×10^6/ml Acinetobacter baumannii ATCC® BAA-747™ or Pseudomonas aeruginosa ATCC® 27853™ (American Type Culture Collection, Manassas, Va.) were incubated with the peptides, negative buffer control (tryptone saline), and positive control gentamicin at pH 5.5 or 7.2. A 60 minute incubation was used for Acinetobacter baumannii ATCC® BAA-747™, while a 180 minute incubation was used for Pseudomonas aeruginosa ATCC® 27853™. 50 μl aliquots were plated out on agar plates and incubated overnight. Colony forming units were counted after overnight incubation and CFU/ml calculated.
For FIG. 14, 1×10^6/ml Pseudomonas aeruginosa ATCC® 27853™ were incubated with each of the test peptides (CAP37 peptides 120-146WR, 120-146WH, 120-146QR, 120-146QH, 120-146QR-5RMP, and 120-146QH-5RMP (SEQ ID NOS:30, 31, 28, 29, 32, and 33, respectively)) at 150, 75, and 37.5 μg/ml, or negative buffer control (tryptone saline), for 180 minutes at pH 5.5. 50 μl aliquots were plated out on agar plates and incubated overnight. Colony forming units were counted after overnight incubation and CFU/ml calculated.

[3] = test system: P. aeruginosa (ATCC 27853); assay: Mouse model of Pseudomonas (bacterial) keratitis; type: in vivo
Method: A circular wound was created on the mouse cornea by removing the epithelium and infected with 10^5 colony forming units (CFU) of P. aeruginosa (ATCC® 27853™ (American Type Culture Collection, Manassas, Va.)). Infected wounds were treated with saline (0.9% sodium chloride, vehicle control) or saline containing indicated concentrations of peptide every 15 minutes for 2 hours, then every 30 minutes for 3 hours on the first day. Infected wounds were treated twice on the second day and once on the third day. Mice were killed at 48 hours post-infection, and CFU/eye were quantified. The means were plotted and are representative of 5 to 9 mice per group. Mann Whitney test was performed for each group as compared to the saline control group. *P=0.014. In compound names such as BCC02-5RMP used herein, “R” represents arginine, and “MP” represents a small PEG molecule as defined elsewhere herein (such as, for example but not by way of limitation, “AEEP”).
(§1) A circular wound was created on the mouse cornea by removing the epithelium, and the wound was infected with 10^5 CFU of P. aeruginosa (ATCC® 27853™ (American Type Culture Collection, Manassas, Va.)). Infected wounds were treated with saline or saline containing indicated concentrations (2, 5, 10, and 20 mg/ml) of peptide every 30 minutes for 6 hours on the first day. Infected wounds were treated twice on the second day and once on the third day. Mice were killed at 48 hours post-infection, and the CFU/eye were quantified. The means are plotted and are representative of 5 mice per group. Mann Whitney test was performed for each group as compared to the saline control group. *P=0.015 and **P=0.097.
as §1, with “representative of 4 to 5 mice” for “representative of 5 mice”, “control group.” for “control group. *P=0.015 and **P=0.097.”
as §1, with “group. **P=0.0079 by” for “group.”, “test” for “test was performed for each group”, “group.” for “group. *P=0.015 and **P=0.097.”
A circular wound (2 mm) was created on the mouse cornea by removing the epithelium and infecting the wound with 10^5 CFU of P. aeruginosa (ATCC® 27853™ (American Type Culture Collection, Manassas, Va.)). Infected wounds were treated with saline or saline containing indicated concentrations of peptide every 15 minutes for 2 hours, then every 30 minutes for 3 hours on the first day. […] Mice were killed at 48 hours post-infection, and the colony forming units per eye (CFU/eye) were quantified. […]

[4] = antibiotic alone, 1×10^5 CFU/well, 24 hours, read-out: MIC

Row | Compound | bactericidal impact on growth curve, in words ([1]; Cefotaxime alone at 2.8 μg/ml) | MIC [1, 4] [µg/mL] | MIC ([1]; in the presence of 3.04 μg/ml of peptide BCC02-5RMP, read-out: MIC of Levofloxacin with peptide) [µg/mL] | reduction in CFU [2] [log] | mice with no viable bacteria in the eye after treatment ([3]; the 10 and 20 mg/ml groups together) | CFU/eye vs saline, in words ([3]; topical doses of 10 and 20 mg/ml, 48 hours post-infection)
1 | CO/N=C(\C(=O)N[C@@H]1C(=O)N2C(C(=O)O)=C(COC(C)=O)CS[C@H]12)c1csc(N)n1 [Cefotaxime] | very little bactericidal impact | 15 | – | – | – | –
2 | C[C@H]1COc2c(N3CCN(C)CC3)c(F)cc3c(=O)c(C(=O)O)cn1c23 [Levofloxacin] | – | 15 | 3.5 | – | – | –
3 | (AEEP)-(AEEP)-RRRRGTRCQVAGWGSQRSGGRLSRFPRFVNVR ([PEG2][PEG2]RRRRGTRCQVAGWGSQRSGGRLSRFPRFVNVR) [120-146QR-5RMP] | – | – | – | ~6 | Six of the 10 mice | significantly reduced the CFU/eye
